# Measurements reported in patent US12636268B2, “CXCL8 inhibitors for use in the treatment of COVID-19” (Dompe' Farmaceutici SPA, priority 2020, dated 2026).
# Tested on: COVID-19 patients with severe pneumonia
# Assay: Phase 2 clinical study of Reparixin plus standard of care in COVID-19 patients with severe pneumonia
# Format: in vivo, human
# Conditions: for Composite endpoint, first occurrence (% patients) / Composite endpoint, first occurrence (n patients): oral tablets 1200 mg TID plus standard of care
# Description: A phase 2 clinical study has been conducted to assess efficacy and safety of Reparixin in COVID-19 patients with severe pneumonia.
# The patients participating to the trial satisfied the following inclusion criteria: • a) at least one of the following: • respiratory distress, RR≥30 breaths/min without oxygen; • Partial arterial oxygen pressure (PaO2)/Fraction of inspiration O2 (FiO2)>100<300 mmHg (1 mmHg=0.133 kPa). • b) chest imaging confirming lung involvement and inflammation. • c) inflammatory status as documented by at least one of the following: Lactate dehydrogenase (LDH)>normal range, C-reactive protein (CRP)≥100 mg/L or IL-6≥40 pg/mL, serum ferritin ≥900 ng/mL, XDP >20 mcg/mL.
# Fourteen patients received the standard of care treatment only (Control group).
# Thirty-two patients received Reparixin oral tablets 1200 mg TID in addition to the standard of care treatment (Reparixin group) for a maximum of 21 days.
# In both groups, where necessary due to the presence of concomitant pathologies (diabetes, hypertension, cancer etc. . . ), the patients also continued to receive specific treatments for these.
# The first occurrence of the composite primary endpoint (at least one of the following events: death, supplemental oxygen requirement, invasive mechanical ventilation use, admission to ICU, and use of a rescue medication for any reason) was evaluated in all the patients and the data obtained are shown in Table 2 below.
# The data collected in the clinical trial were analyzed by means of the Kaplan-Meier methodology and the log-rank test was used to test for differences between treatment groups. The Kaplan-Meier method is a well-established method to analyse the patterns of events over time to estimate the probability of being free of event. The form of the estimated “survival curves” is a step function, with steps down occurring at those time points where there are events. As patients have events or are censored (patients who exit the analyses for other reasons than events) the number of patients remaining evaluable in the trial in each of the treatment groups is diminishing. The probabilities of being free of event are, as a consequence, estimated from fewer and fewer patients as time progresses. To give information in relation to this, the number of patients at risk at various time points are provided: these are the numbers of patients still at risk of having their first occurrence of the composite endpoint.
# [1] = Reparixin plus standard of care vs standard of care only
structure (smiles),measurement,setting,value
"CC(C)Cc1ccc([C@@H](C)C(=O)NS(C)(=O)=O)cc1 [Reparixin, R-(-)-2-(4-isobutylphenyl)propionyl methansulfonamide]","Composite endpoint, first occurrence (% patients)","Day 1, 32 evaluable patients",9.4%
same,"Composite endpoint, first occurrence (n patients)","Day 1, 32 evaluable patients, composite = death, supplemental oxygen requirement, invasive mechanical ventilation use, admission to ICU, or rescue medication",3
same,"Composite endpoint, first occurrence (% patients)","Day 2, 27 evaluable patients",7.4%
same,"Composite endpoint, first occurrence (n patients)","Day 2, 27 evaluable patients",2
same,Time of recovery of patients,Reparixin group compared to the Control group,significantly reduced
same,"Freedom from composite event over time (Kaplan-Meier, FIG. 1)","Reparixin group vs Control group (standard of care only), log-rank test p-value 0.0031",statistically significant higher freedom from event
same,Progression to more severe respiratory disease,"Reparixin group vs Control group, shown by incidence of the composite endpoints",prevents the progression to more severe respiratory disease
same,Days of oxygen use,[1],fewer days of oxygen use
same,Duration of mechanical ventilation,[1],shorter subsequent duration of mechanical ventilation
same,Respiratory function,patients in the Reparixin group,improved respiratory function
